What is called IC50 is the point on the concentration scale where inhibition reaches its midpoint.

The results in this text go back to patent publication US7524849B2, “5-arylpyrimidines as anticancer agents” (Wyeth Holdings Corporation, priority 2003, dated 2009).

The subject of one experiment is COLO 205 cells. In words: MTS cytotoxicity test with COLO 205 cells. It counts as cell-based, human. Conditions: Homo sapiens, 72 h, three days with compound. Here is the method:
The assay, which is sold in kit form by Promega (Madison, Wis.; CellTiter 96 AQueous Non-Radioactive Cell Proliferation Assay), is based on the conversion by viable cells, but not by dead cells, of the tetrazolium salt, MTS (3-(4,5-dimethylthiazol-2-yl)-5-(3-carboxymethoxyphenyl)-2-(4-sulphophenyl)-2H-tetrazolium, inner salt), into a water-soluble colored formazan which is detected by spectrophotometry. Compounds are tested at nine concentrations, in order to determine IC50 values. For the test procedure, cells are harvested by trypsinization, washed, counted and distributed to wells of 96-well flat-bottom microtiter plates at 1000 cells per well in 200 μL of medium. In addition, one row of wells on a separate plate receives cells as above (“time 0” plate). All plates are incubated at 37° in humidified 5% CO2 in air for about 24 hr.
On day 2, compounds for test are diluted and added to wells. Compounds are dissolved in DMSO at 10 mg/mL. For each compound, nine serial 2-fold dilutions are prepared in DMSO. Ten μL of each dilution in DMSO are transferred to 100 μL of medium, mixed well, and then 5 μL of this dilution are transferred in quadruplicate to wells containing cells. The final high concentration of each compound is typically 5 μM. Plates are returned to the incubator for three days. At the time of drug addition to the experimental plates, the MTS assay is run on the “time 0” plate. This produces the “time 0 MTS value” which is related to the number of viable cells per well at the time of drug addition.
After three days of culture with test compounds (day 5 overall), the MTS assay is done on all wells of the experimental plates. The absorbance values of the quadruplicate sample wells are averaged and divided by the average of the “time 0” values. The average of control wells without drug, divided by the average “time 0” value, gives the maximal relative increase in MTS color yield due to cell growth during the final three days of culture. The average of control wells with high drug concentration, divided by the “time 0” value, gives the minimal relative color yield for cells that were completely killed. The nine values for each compound are plotted against concentration, and the concentration that produces a relative color yield half way between the maximum and minimum is taken as the IC50 value.
COLO 205 is a human colon carcinoma cell line that is used for comparative testing of the examples of this invention and several reference compounds. This line is sensitive to paclitaxel and vincristine.
In general terms: Formazan colour is commonly taken as a measure of viable cells.
On to `Cn1ccnc1-c1nc(Cl)c(-c2c(F)cc(F)cc2F)c(NCC(F)(F)F)n1` [Example 34, 6-Chloro-2-(1-methyl-1H-imidazol-2-yl)-N-(2,2,2-trifluoroethyl)-5-(2,4,6-trifluorophenyl)pyrimidin-4-amine], for which the IC50 is 77 nM.
As to `Fc1cc(F)c(-c2c(Cl)nc(-c3ccc4ccccc4n3)nc2NCC(F)(F)F)c(F)c1` [Example 10, 6-Chloro-2-quinolin-2-yl-N-(2,2,2-trifluoroethyl)-5-(2,4,6-trifluorophenyl)pyrimidin-4-amine], the IC50 is 250 nM.
On the same count and under the same terms, in the case of `Fc1cc(F)c(-c2c(Cl)nc(-n3cccc3)nc2NCC(F)(F)F)c(F)c1` [Example 18, 6-Chloro-2-(1H-pyrrol-1-yl)-N-(2,2,2-trifluoroethyl)-5-(2,4,6-trifluorophenyl)pyrimidin-4-amine] it was 7080 nM.
`Fc1cc(F)c(-c2c(Cl)nc(-n3cccn3)nc2NCC(F)(F)F)c(F)c1` [Example 16, 6-Chloro-2-(1H-pyrazol-1-yl)-N-(2,2,2-trifluoroethyl)-5-(2,4,6-trifluorophenyl)pyrimidin-4-amine]: the half-maximal inhibitory concentration (IC50) amounted to 53 nM.
For the molecule `CN(C)CCCOc1cc(F)c(-c2c(Cl)nc(-c3ccc(N=[N+]=[N-])cn3)nc2NCC(F)(F)F)c(F)c1` [Example 38, 2-(5-Azidopyridin-2-yl)-6-chloro-5-{4-[3-(dimethylamino)propoxy]-2,6-difluorophenyl}-N-(2,2,2-trifluoroethyl)pyrimidin-4-amine], the IC50 turned out to be 23 nM.
Regarding `O=[N+]([O-])c1ccc(-c2nc(Cl)c(-c3c(F)cc(F)cc3F)c(NCC(F)(F)F)n2)nc1` [Example 37, 6-Chloro-2-(5-nitropyridin-2-yl)-N-(2,2,2-trifluoroethyl)-5-(2,4,6-trifluorophenyl)pyrimidin-4-amine], the IC50 was 132 nM.
`Fc1cc(F)c(-c2c(Cl)nc(-c3ccccn3)nc2NCC(F)(F)F)c(F)c1` [Example 8, 6-Chloro-2-pyridin-2-yl-N-(2,2,2-trifluoroethyl)-5-(2,4,6-trifluorophenyl)pyrimidin-4-amine]: the IC50 amounted to 39 nM.
In the case of `Fc1cc(F)c(-c2c(Cl)nc(-c3cnccn3)nc2NCC(F)(F)F)c(F)c1` [Example 4, 6-Chloro-2-pyrazin-2-yl-N-(2,2,2-trifluoroethyl)-5-(2,4,6-trifluorophenyl)pyrimidin-4-amine], the IC50 amounted to 84 nM.
Still for that read-out and setting: to `Fc1cc(F)c(-c2c(Cl)nc(-c3ncccn3)nc2NCC(F)(F)F)c(F)c1` [Example 5, 6-Chloro-N-(2,2,2-trifluoroethyl)-5-(2,4,6-trifluorophenyl)-2,2′-bipyrimidin-4-amine] belongs 265 nM; to `C[C@H](Nc1nc(-n2cccn2)nc(Cl)c1-c1c(F)cc(F)cc1F)C(F)(F)F` [Example 17, 6-Chloro-2-(1H-pyrazol-1-yl)-N-[(1S)-2,2,2-trifluoro-1-methylethyl)-5-(2,4,6-trifluorophenyl)pyrimidin-4-amine], 19 nM; to `CN(C)CCCOc1cc(F)c(-c2c(Cl)nc(-c3cnccn3)nc2NCC(F)(F)F)c(F)c1` [Example 25, 6-Chloro-5-{4-[3-(dimethylamino)propoxy]-2,6-difluorophenyl}-2-pyrazin-2-yl-N-(2,2,2-trifluoroethyl)pyrimidin-4-amine], 22 nM.
With `Fc1cc(F)c(-c2c(Cl)nc(-c3cc4ccccc4cn3)nc2NCC(F)(F)F)c(F)c1` [Example 12, 6-Chloro-2-isoquinolin-3-yl-N-(2,2,2-trifluoroethyl)-5-(2,4,6-trifluorophenyl)pyrimidin-4-amine], the IC50 worked out at 119 nM.
Turning to `Fc1cc(F)c(-c2c(Cl)nc(-c3ccncc3)nc2NCC(F)(F)F)c(F)c1` [Example 6, 6-Chloro-2-pyridin-4-yl-N-(2,2,2-trifluoroethyl)-5-(2,4,6-trifluorophenyl)pyrimidin-4-amine], the IC50 was determined as 7050 nM.
Still for that read-out and setting: in the case of `CNCCCOc1cc(F)c(-c2c(Cl)nc(-c3cnccn3)nc2N[C@@H](C)C(F)(F)F)c(F)c1` [Example 24, 6-Chloro-5-{2,6-difluoro-4-[3-(methylamino)propoxy]phenyl}-2-pyrazin-2-yl-N-[(1S)-2,2,2-trifluoro-1-methylethyl]pyrimidin-4-amine] it was 6.9 nM.
For the molecule `Fc1cc(F)c(-c2c(Cl)nc(-c3nccc4ccccc34)nc2NCC(F)(F)F)c(F)c1` [Example 11, 6-Chloro-2-isoquinolin-1-yl-N-(2,2,2-trifluoroethyl)-5-(2,4,6-trifluorophenyl)pyrimidin-4-amine], the IC50 was 4680 nM.
Same read-out and setting: to `Fc1cc(F)c(-c2c(Cl)nc(-c3ccc[nH]3)nc2NCC(F)(F)F)c(F)c1` [Example 35, 6-Chloro-2-(1H-pyrrol-2-yl)-N-(2,2,2-trifluoroethyl)-5-(2,4,6-trifluorophenyl)pyrimidin-4-amine] belongs 7030 nM.
Consider `CN(C)CCCCOc1cc(F)c(-c2c(Cl)nc(-c3cnccn3)nc2NCC(F)(F)F)c(F)c1` [Example 28, 6-Chloro-5-{4-[4-(dimethylamino)butoxy]-2,6-difluorophenyl}-2-pyrazin-2-yl-N-(2,2,2-trifluoroethyl)pyrimidin-4-amine], for which the IC50 stood at 32 nM.
As to `CN(C)CCOc1cc(F)c(-c2c(Cl)nc(N(C)C#N)nc2NCC(F)(F)F)c(F)c1` [Example 22, 4-Chloro-5-{4-[2-(dimethylamino)ethoxy]-2,6-difluorophenyl}-6-[(2,2,2-trifluoroethyl)amino]pyrimidin-2-yl(methyl)cyanamide], the IC50 was 532 nM.
The same measure, in the same setting: to `Cc1ccnc(-c2nc(Cl)c(-c3c(F)cc(F)cc3F)c(NCC(F)(F)F)n2)c1` [Example 36, 6-Chloro-2-(4-methylpyridin-2-yl)-N-(2,2,2-trifluoroethyl)-5-(2,4,6-trifluorophenyl)pyrimidin-4-amine] belongs 109 nM; to `C[C@H](Nc1nc(-c2ccccn2)nc(Cl)c1-c1c(F)cc(F)cc1F)C(F)(F)F` [Example 9, 6-Chloro-2-pyridin-2-yl-N-[(1S)-2,2,2-trifluoro-1-methylethyl]-5-(2,4,6-trifluorophenyl)pyrimidin-4-amine], 29 nM; to `CN(C)CCCOc1cc(F)c(-c2c(Cl)nc(-c3ncccn3)nc2NCC(F)(F)F)c(F)c1` [Example 26, 6-Chloro-5-{4-[3-(dimethylamino)propoxy]-2,6-difluorophenyl}-N-(2,2,2-trifluoroethyl)-2,2′-bipyrimidin-4-amine], 49 nM.
In the case of `C[C@H](Nc1nc(-c2cnccn2)nc(Cl)c1-c1c(F)cc(F)cc1F)C(F)(F)F` [Example 3, 6-Chloro-2-pyrazin-2-yl-N-[(1S)-2,2,2-trifluoro-1-methylethyl]-5-(2,4,6-trifluorophenyl)pyrimidin-4-amine], the IC50 is 51 nM.
For the molecule `CN(C)CCOc1cc(F)c(-c2c(Cl)nc(-c3cnccn3)nc2NCC(F)(F)F)c(F)c1` [Example 27, 6-Chloro-5-{4-[2-(dimethylamino)ethoxy]-2,6-difluorophenyl}-2-pyrazin-2-yl-N-(2,2,2-trifluoroethyl)pyrimidin-4-amine], the IC50 amounted to 128 nM.
In the case of `Fc1cc(F)c(-c2c(Cl)nc(-c3cccnc3)nc2NCC(F)(F)F)c(F)c1` [Example 7, 6-Chloro-2-pyridin-3-yl-N-(2,2,2-trifluoroethyl)-5-(2,4,6-trifluorophenyl)pyrimidin-4-amine], the IC50 turned out to be 3930 nM.
Regarding `Fc1cc(F)c(-c2c(Cl)nc(-c3ccco3)nc2NCC(F)(F)F)c(F)c1` [Example 14, 6-Chloro-2-(2-furyl)-N-(2,2,2-trifluoroethyl)-5-(2,4,6-trifluorophenyl)pyrimidin-4-amine], the IC50 was found to be 232 nM.
On to `Fc1cc(F)c(-c2c(Cl)nc(-c3cccs3)nc2NCC(F)(F)F)c(F)c1` [Example 13, 6-Chloro-2-thien-2-yl-N-(2,2,2-trifluoroethyl)-5-(2,4,6-trifluorophenyl)pyrimidin-4-amine], for which the IC50 turned out to be 3460 nM.

The same experiment, now with this note: three days with compound.
For “4-Chloro-6-[(2,2,2-trifluoroethyl)amino]-5-(2,4,6-trifluorophenyl)pyrimidin-2-yl]ethylcyanamide [Example 2]”, the IC50 came out at 304 nM.
